Test results taken from patent publication US12280047B2, “Treatment of aneurysms” (Georgia State Research Foundation, Inc., priority 2017, dated 2025).

Experiments:
Type in all cases: in vivo
[1] = tested on: ApoE−/− and ApoE−/−/IDO−/− mice; assay: Serum cytokine in AngII-infused mice; details: 4 weeks, mean ± s.e.m.
Excerpt: (§1) IDO^−/− and ApoE^−/− mice were obtained from Jackson laboratory (Bar Harbor, Maine) in a C57BL/6 background. IDO^−/− mice were crossed with ApoE^−/− mice to generate ApoE^−/−/IDO^−/− mice. Mice were housed in temperature-controlled cages under a 12-hour light/dark cycle and given free access to water and normal chow. All procedures involving animals were approved by the Institutional Animal Care and Use Committee at the University of Oklahoma Health Sciences Center. […] Circ Res. (2014) 114:480-92.
AngII infusion is intensely associated with vascular inflammation, which is considered a key mediator of AngII-induced AAA formation. See Qin Z, et al., Angiotensin II-induced TLR4 mediated abdominal aortic aneurysm in apolipoprotein E knockout mice is dependent on STAT3. J Mol Cell Cardiol. (2015) 87:160-70; Owens A P, et al., MyD88 deficiency attenuates angiotensin II-induced abdominal aortic aneurysm formation independent of signaling through Toll-like receptors 2 and 4. Arterioscler Thromb Vasc Biol. (2011) 31:2813-9. […] Circ Res. (2014) 114:480-92. Similarly, an increase in IFN-γ expression was evident in the aortas of AngII-treated ApoE^−/− and ApoE^−/−/IDO^−/− mice. The consequent induction of IDO expression in the aortas of AngII-infused ApoE^−/− mice was also observed (FIGS. 2A, 2B, and 2E). […] This may be due to the high content of Trp in mouse diets.

[2] = tested on: ApoE−/− and ApoE−/−/IDO−/− mice; assay: AngII-induced AAA formation in ApoE−/− and ApoE−/−/IDO−/− mice; details: AngII 1000 ng/min/kg, 4 weeks
Excerpt: as §1
To quantify AAA incidence and size, the maximum width of abdominal aorta was measure with Image Pro Plus software (Media Cybernetics). We quantified aneurysm incidence based on a definition of aneurysm as an external width of the suprarenal aorta that was increased by 50% or greater compared with aortas from saline-infused mice, as described previously (Sparks A R, et al., Imaging of abdominal aortic aneurysms. Am Fam Physician. (2002) 65:1565-70). The average diameter of the normal suprarenal aorta in control mice is 0.8 mm. […]
AngII-induced mouse AAA formation in the atherosclerotic-susceptible strain (ApoE^−/−) has become the most widely used model. […] To unravel the role of the Trp-Kyn pathway in AAA formation ApoE^−/−/IDO^−/− (double-knockout) mice were generated and the outcome of a 4-week AngII infusion (1000 ng/min/kg) in ApoE^−/− and ApoE^−/−/IDO^−/− mice was determined. […]

ApoE−/− mice [3] = assay: OMBA, NBA and 1MT treating AngII-induced abdominal aortic aneurysm (Example 15); details: ApoE−/− mice; AngII 1,000 ng/kg/min four weeks, then drug in drinking water 6 weeks; mice with AAA/group size
Protocol: To test the effect of other Kynurenine pathway inhibitors on treating AngII-induced abdominal aortic aneurysm, male ApoE^−/− mice at age 8 weeks were infused with AngII (1,000 ng/kg/min) or saline (0.9% sodium chloride) by Alzet osmotic pumps for four weeks. Four weeks later, Ang-II treated mice were divided into […] groups of 18 and administered o-methoxybenzo ylalanine (OMB), (m-nitrobenzoyl)alanine (NBA), 1-methyltryptophan (1MT) or vehicle control (water) by drinking water for 6 weeks.
To quantify AAA incidence and size, the maximum width of abdominal aorta was measured with Image Pro Plus software (Media Cybernetics). Aneurysm incidence was quantified based on a definition of aneurysm as an external width of the suprarenal aorta that was increased by 50% or greater compared with aortas from saline-infused mice. The average diameter of the normal suprarenal aorta in control mice is 0.8 mm. Therefore, a threshold of 1.22 mm as evidence of aneurysm formation was set. […] Incidence of AAA among the various groups of mice is outlined in FIG. 31A and Table 5 below.

ApoE−/− mice [4] = assay: Acipimox preventing AngII-induced AAA in aged mice (Example 16); details: AngII 1,000 ng/kg/min four weeks
Protocol: To compare the effect of acipimox on treating AngII-induced abdominal aortic aneurysm in young (3 months old) or old (24 months old) mice, male ApoE^−/− mice in the aged mice group were treated with acipimox (0.1% wt) or vehicle control (water) by drinking water for 6 weeks. Four weeks later, mice in both age groups were infused with AngII (1,000 ng/kg/min) or saline (0.9% sodium chloride) by Alzet osmotic pumps for four weeks. AAA incidence and maximal abdominal aorta diameter were examined to evaluate the therapeutic effect of acipimox on AngII-induced AAA in old mice.
To quantify AAA incidence and size, the maximum width of abdominal aorta was measured with Image Pro Plus software (Media Cybernetics). Aneurysm incidence was quantified based on a definition of aneurysm as an external width of the suprarenal aorta that was increased by 50% or greater compared with aortas from saline-infused mice. The average diameter of the normal suprarenal aorta in control mice is 0.705 mm. Therefore, a threshold of 1.06 mm as evidence of aneurysm formation was set. […] After 4-weeks of AngII-infusion, mice where divided into two groups vehicle treated (n=10) or acipimox treated (n=15). Before treatment, the AAA incidence was 20% and 70% in young and old mice, respectively. After six weeks of treatment acipimox, AAA incidence decreased to 25% in the old mice group. […]

## Angiotensin II (DRVYIHPF; Angiotensin-2; UniProt P01019 25-32, looked up) [AngII, Angiotensin II (Sigma, A9525) infused to induce AAA in mice]
[1]; Apoe−/− mice
  CyPA: 771.8 ± 36.8 pM
  IFN-y: 24.91 ± 1.75 pg/mL
  IL -6: 20.07 ± 3.25 pg/mL
  TNF - a: 123.7 ± 18.2 pg/mL
[1]; Apoe−/−/IDO−/− mice
  CyPA: 572.2 ± 42.7 pM
  IFN-y: 28.32 ± 2.73 pg/mL
  IL -6: 22.25 ± 5.45 pg/mL
  TNF - a: 118.5 ± 16.1 pg/mL
[2]; ApoE−/− mice
  incidence of AngII-induced AAA: 73%
[2]; ApoE−/−/IDO−/− mice
  incidence of AngII-induced AAA: 15%
ApoE−/− mice [3]
  Incidence of AAA: 15/18
ApoE−/− mice [4]; old (24 months old) ApoE−/− mice
  AAA incidence: 70%
ApoE−/− mice [4]; young (3 months old) ApoE−/− mice
  AAA incidence: 20%
